Laboratory results from paper PMC5584945, “Evaluation of robenidine analog NCL195 as a novel broad-spectrum antibacterial agent” (PLoS ONE, 2017).
In brackets after ≈: the same amount, converted by molar mass.

Test system: vancomycin-resistant enterococci (VRE)
Experiment: MIC, broth micro-dilution (CLSI)
Type: cell-based, enterococci (porcine isolates)
Details: for MIC90 / MIC50 / MIC: Enterococcus, VRE
[1] = S3 Table isolates, absence of FBS

CC1(C)S[C@@H]2[C@H](NC(=O)[C@H](N)c3ccccc3)C(=O)N2[C@H]1C(=O)O [Ampicillin]
MIC90 (20 isolates): 2 µg/mL (≈ 5.72 µM) | MIC50 [1]: 1 µg/mL (≈ 2.86 µM) | MIC90 [1]: 2 µg/mL (≈ 5.72 µM) | MIC (VRE 1 (49 FR), absence of FBS): 2 µg/mL (≈ 5.72 µM) | MIC (VRE 2 (53 FR), absence of FBS): 1 µg/mL (≈ 2.86 µM) | MIC (VRE 3 (55 FR), absence of FBS): 1 µg/mL (≈ 2.86 µM) | MIC (VRE 4 (57 FR), absence of FBS): 1 µg/mL (≈ 2.86 µM) | MIC (VRE5 (58 FR), absence of FBS): 1 µg/mL (≈ 2.86 µM) | MIC (VRE 6 (59 FR), absence of FBS): 2 µg/mL (≈ 5.72 µM) | MIC (VRE 7 (270 G), absence of FBS): 0.25 µg/mL (≈ 0.715 µM) | MIC (VRE 8 (277 G), absence of FBS): 2 µg/mL (≈ 5.72 µM) | MIC (VRE 9 (61 FR), absence of FBS): 1 µg/mL (≈ 2.86 µM) | MIC (VRE 10 (62 FR), absence of FBS): 2 µg/mL (≈ 5.72 µM) | MIC (VRE 11 (284 G), absence of FBS): 2 µg/mL (≈ 5.72 µM) | MIC (VRE 12 (290 G), absence of FBS): 1 µg/mL (≈ 2.86 µM) | MIC (VRE 13 (251 G), absence of FBS): 1 µg/mL (≈ 2.86 µM) | MIC (VRE 14 (252 G), absence of FBS): 0.5 µg/mL (≈ 1.43 µM) | MIC (VRE 15 (63 FR), absence of FBS): 1 µg/mL (≈ 2.86 µM) | MIC (VRE 16 (60 FR), absence of FBS): 1 µg/mL (≈ 2.86 µM) | MIC (VRE 17 (45 FR), absence of FBS): 2 µg/mL (≈ 5.72 µM) | MIC (VRE 18 (69 W), absence of FBS): 1 µg/mL (≈ 2.86 µM) | MIC (VRE 19 (70 W), absence of FBS): 1 µg/mL (≈ 2.86 µM) | MIC (VRE 20 (78 W), absence of FBS): 1 µg/mL (≈ 2.86 µM) | MIC range [1]: 0.25 to 2 µg/mL

CCCCCCCCCC(=O)N[C@@H](Cc1c[nH]c2ccccc12)C(=O)N[C@H](CC(N)=O)C(=O)N[C@@H](CC(=O)O)C(=O)N[C@@H]1C(=O)NCC(=O)N[C@@H](CCCN)C(=O)N[C@@H](CC(=O)O)C(=O)N[C@H](C)C(=O)N[C@@H](CC(=O)O)C(=O)NCC(=O)N[C@H](CO)C(=O)N[C@@H]([C@H](C)CC(=O)O)C(=O)N[C@@H](CC(=O)c2ccccc2N)C(=O)O[C@@H]1C [Daptomycin, daptomycin]
MIC90 (20 isolates): 2 µg/mL (≈ 1.23 µM) | MIC50 [1]: 1 µg/mL (≈ 0.617 µM) | MIC90 [1]: 2 µg/mL (≈ 1.23 µM) | MIC (VRE 1 (49 FR), absence of FBS): 1 µg/mL (≈ 0.617 µM) | MIC (VRE 2 (53 FR), absence of FBS): 2 µg/mL (≈ 1.23 µM) | MIC (VRE 3 (55 FR), absence of FBS): 2 µg/mL (≈ 1.23 µM) | MIC (VRE 4 (57 FR), absence of FBS): 2 µg/mL (≈ 1.23 µM) | MIC (VRE5 (58 FR), absence of FBS): 2 µg/mL (≈ 1.23 µM) | MIC (VRE 6 (59 FR), absence of FBS): 2 µg/mL (≈ 1.23 µM) | MIC (VRE 7 (270 G), absence of FBS): 1 µg/mL (≈ 0.617 µM) | MIC (VRE 8 (277 G), absence of FBS): 0.5 µg/mL (≈ 0.309 µM) | MIC (VRE 9 (61 FR), absence of FBS): 1 µg/mL (≈ 0.617 µM) | MIC (VRE 10 (62 FR), absence of FBS): 2 µg/mL (≈ 1.23 µM) | MIC (VRE 11 (284 G), absence of FBS): 0.5 µg/mL (≈ 0.309 µM) | MIC (VRE 12 (290 G), absence of FBS): 1 µg/mL (≈ 0.617 µM) | MIC (VRE 13 (251 G), absence of FBS): 0.5 µg/mL (≈ 0.309 µM) | MIC (VRE 14 (252 G), absence of FBS): 1 µg/mL (≈ 0.617 µM) | MIC (VRE 15 (63 FR), absence of FBS): 1 µg/mL (≈ 0.617 µM) | MIC (VRE 16 (60 FR), absence of FBS): 2 µg/mL (≈ 1.23 µM) | MIC (VRE 17 (45 FR), absence of FBS): 2 µg/mL (≈ 1.23 µM) | MIC (VRE 18 (69 W), absence of FBS): 1 µg/mL (≈ 0.617 µM) | MIC (VRE 19 (70 W), absence of FBS): 0.5 µg/mL (≈ 0.309 µM) | MIC (VRE 20 (78 W), absence of FBS): 2 µg/mL (≈ 1.23 µM) | MIC range [1]: 0.5 to 2 µg/mL
